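Where inhibition never reached the appropriate level, the endpoint shown equals the highest concentration tested. Otherwise, values were interpolated linearly from a five-concentration, 48-hour dose response in 96-well plates. The concentration for full growth arrest is given as TGI.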
Tests used:
Assay in all cases: NCI-60 cell line screen, 48 h
786-0 renal = system: 786-0 renal
A498 renal = system: A498 renal
A549 NSCLC = system: A549 NSCLC
ACHN renal = system: ACHN renal
BT-549 breast = system: BT-549 breast
CAKI-1 renal = system: CAKI-1 renal
CCRF-CEM leukemia = system: CCRF-CEM leukemia
COLO 205 colon = system: COLO 205 colon
DU-145 prostate = system: DU-145 prostate
EKVX NSCLC = system: EKVX NSCLC
HCC-2998 colon = system: HCC-2998 colon
HCT-116 colon = system: HCT-116 colon
HCT-15 colon = system: HCT-15 colon
HL-60(TB) leukemia = system: HL-60(TB) leukemia
HOP-62 NSCLC = system: HOP-62 NSCLC
HOP-92 NSCLC = system: HOP-92 NSCLC
HS 578T breast = system: HS 578T breast
HT29 colon = system: HT29 colon
IGROV1 ovarian = system: IGROV1 ovarian
K-562 leukemia = system: K-562 leukemia
KM12 colon = system: KM12 colon
LOX IMVI melanoma = system: LOX IMVI melanoma
M14 melanoma = system: M14 melanoma
MALME-3M melanoma = system: MALME-3M melanoma
MCF7 breast = system: MCF7 breast
MDA-MB-231 breast = system: MDA-MB-231 breast
MDA-MB-435 = system: MDA-MB-435
MDA-N = system: MDA-N
MOLT-4 leukemia = system: MOLT-4 leukemia
NCI-H226 lung = system: NCI-H226 lung
NCI-H23 lung = system: NCI-H23 lung
NCI-H460 lung = system: NCI-H460 lung
NCI-H522 lung = system: NCI-H522 lung
NCI/ADR-RES ovarian = system: NCI/ADR-RES ovarian
OVCAR-3 ovarian = system: OVCAR-3 ovarian
OVCAR-4 ovarian = system: OVCAR-4 ovarian
OVCAR-5 ovarian = system: OVCAR-5 ovarian
OVCAR-8 ovarian = system: OVCAR-8 ovarian
PC-3 prostate = system: PC-3 prostate
RPMI-8226 leukemia = system: RPMI-8226 leukemia
SF-268 CNS = system: SF-268 CNS
SF-295 CNS = system: SF-295 CNS
SF-539 CNS = system: SF-539 CNS
SK-MEL-2 melanoma = system: SK-MEL-2 melanoma
SK-MEL-28 melanoma = system: SK-MEL-28 melanoma
SK-MEL-5 melanoma = system: SK-MEL-5 melanoma
SK-OV-3 ovarian = system: SK-OV-3 ovarian
SN12C renal = system: SN12C renal
SNB-19 CNS = system: SNB-19 CNS
SR leukemia = system: SR leukemia
SW-620 colon = system: SW-620 colon
T-47D breast = system: T-47D breast
TK-10 renal = system: TK-10 renal
U251 CNS = system: U251 CNS
UACC-257 melanoma = system: UACC-257 melanoma
UACC-62 melanoma = system: UACC-62 melanoma
UO-31 renal = system: UO-31 renal
RXF 393 renal = system: RXF 393 renal
SNB-75 CNS = system: SNB-75 CNS

Work on `Cc1n[nH]c(=O)n1/N=C/c1cccnc1` yielded a TGI (786-0 renal) of over 100 µM, a TGI (A498 renal) of over 100 µM and a TGI (A549 NSCLC) of over 100 µM. It also gave a TGI (ACHN renal) of over 100 µM, a TGI (BT-549 breast) of over 100 µM and a TGI (CAKI-1 renal) of over 100 µM. For the same compound, the TGI (CCRF-CEM leukemia) was over 100 µM, the TGI (COLO 205 colon) was over 100 µM and the TGI (DU-145 prostate) was over 100 µM. For the same compound, the TGI (EKVX NSCLC) was over 100 µM, the TGI (HCC-2998 colon) was over 100 µM and the TGI (HCT-116 colon) was over 100 µM. For the same compound, the TGI (HCT-15 colon) was over 100 µM, the TGI (HL-60(TB) leukemia) was over 100 µM and the TGI (HOP-62 NSCLC) was over 100 µM. For the same compound, the TGI (HOP-92 NSCLC) was over 100 µM, the TGI (HS 578T breast) was over 100 µM and the TGI (HT29 colon) was over 100 µM. It also gave a TGI (IGROV1 ovarian) of over 100 µM, a TGI (K-562 leukemia) of over 100 µM and a TGI (KM12 colon) of over 100 µM. For the same compound, the TGI (LOX IMVI melanoma) was over 100 µM, the TGI (M14 melanoma) was over 100 µM and the TGI (MALME-3M melanoma) was over 100 µM. For the same compound, the TGI (MCF7 breast) was over 100 µM, the TGI (MDA-MB-231 breast) was over 100 µM and the TGI (MDA-MB-435) was over 100 µM. The TGI (MDA-N) was over 100 µM, the TGI (MOLT-4 leukemia) was over 100 µM and the TGI (NCI-H226 lung) was over 100 µM. For the same compound, the TGI (NCI-H23 lung) was over 100 µM, the TGI (NCI-H460 lung) was over 100 µM and the TGI (NCI-H522 lung) was over 100 µM. For the same compound, the TGI (NCI/ADR-RES ovarian) was over 100 µM, the TGI (OVCAR-3 ovarian) was over 100 µM and the TGI (OVCAR-4 ovarian) was over 100 µM. It also gave a TGI (OVCAR-5 ovarian) of over 100 µM, a TGI (OVCAR-8 ovarian) of over 100 µM and a TGI (PC-3 prostate) of over 100 µM. For the same compound, the TGI (RPMI-8226 leukemia) was over 100 µM, the TGI (SF-268 CNS) was over 100 µM and the TGI (SF-295 CNS) was over 100 µM. For the same compound, the TGI (SF-539 CNS) was over 100 µM, the TGI (SK-MEL-2 melanoma) was over 100 µM and the TGI (SK-MEL-28 melanoma) was over 100 µM. For the same compound, the TGI (SK-MEL-5 melanoma) was over 100 µM, the TGI (SK-OV-3 ovarian) was over 100 µM and the TGI (SN12C renal) was over 100 µM. For the same compound, the TGI (SNB-19 CNS) was over 100 µM, the TGI (SR leukemia) was over 100 µM and the TGI (SW-620 colon) was over 100 µM. For the same compound, the TGI (T-47D breast) was over 100 µM, the TGI (TK-10 renal) was over 100 µM and the TGI (U251 CNS) was over 100 µM. It also gave a TGI (UACC-257 melanoma) of over 100 µM, a TGI (UACC-62 melanoma) of over 100 µM and a TGI (UO-31 renal) of over 100 µM.
`COC(=O)c1c(C(=O)OC)c(C(c2ccccc2)c2ccccc2)n(-c2ccccc2)c1Cl` was tested, and the TGI (786-0 renal) was over 10 µM, the TGI (A498 renal) was over 10 µM and the TGI (A549 NSCLC) was over 10 µM. The TGI (ACHN renal) was over 10 µM, the TGI (BT-549 breast) was over 10 µM and the TGI (CAKI-1 renal) was over 10 µM. It also gave a TGI (CCRF-CEM leukemia) of over 10 µM, a TGI (COLO 205 colon) of over 10 µM and a TGI (DU-145 prostate) of over 10 µM. For the same compound, the TGI (EKVX NSCLC) was over 10 µM, the TGI (HCC-2998 colon) was over 10 µM and the TGI (HCT-116 colon) was over 10 µM. It also gave a TGI (HCT-15 colon) of over 10 µM, a TGI (HL-60(TB) leukemia) of over 10 µM and a TGI (HOP-62 NSCLC) of over 10 µM. The TGI (HOP-92 NSCLC) was over 10 µM, the TGI (HS 578T breast) was over 10 µM and the TGI (HT29 colon) was over 10 µM. The TGI (IGROV1 ovarian) was over 10 µM, the TGI (K-562 leukemia) was over 10 µM and the TGI (KM12 colon) was over 10 µM. It also gave a TGI (M14 melanoma) of over 10 µM, a TGI (MALME-3M melanoma) of over 10 µM and a TGI (MCF7 breast) of over 10 µM. It also gave a TGI (MDA-MB-231 breast) of over 10 µM, a TGI (MDA-MB-435) of over 10 µM and a TGI (MDA-N) of over 10 µM. The TGI (MOLT-4 leukemia) was 8.1 µM, the TGI (NCI-H226 lung) was over 10 µM and the TGI (NCI-H23 lung) was over 10 µM. For the same compound, the TGI (NCI-H460 lung) was over 10 µM, the TGI (NCI/ADR-RES ovarian) was over 10 µM and the TGI (OVCAR-3 ovarian) was over 10 µM. It also gave a TGI (OVCAR-4 ovarian) of over 10 µM, a TGI (OVCAR-5 ovarian) of over 10 µM and a TGI (OVCAR-8 ovarian) of over 10 µM. It also gave a TGI (PC-3 prostate) of over 10 µM, a TGI (RPMI-8226 leukemia) of over 10 µM and a TGI (RXF 393 renal) of over 10 µM. It also gave a TGI (SF-268 CNS) of over 10 µM, a TGI (SF-295 CNS) of over 10 µM and a TGI (SF-539 CNS) of over 10 µM. It also gave a TGI (SK-MEL-28 melanoma) of over 10 µM, a TGI (SK-MEL-5 melanoma) of over 10 µM and a TGI (SN12C renal) of over 10 µM. The TGI (SNB-19 CNS) was over 10 µM, the TGI (SR leukemia) was over 10 µM and the TGI (SW-620 colon) was over 10 µM. The TGI (T-47D breast) was over 10 µM, the TGI (TK-10 renal) was over 10 µM and the TGI (U251 CNS) was over 10 µM. For the same compound, the TGI (UACC-257 melanoma) was over 10 µM, the TGI (UACC-62 melanoma) was over 10 µM and the TGI (UO-31 renal) was over 10 µM.
Work on `O=C1OC2(c3ccc(O)cc3Oc3cc(O)ccc32)c2c1c(-c1ccccc1)c(-c1ccccc1)c(-c1ccccc1)c2-c1ccccc1` yielded a TGI (786-0 renal) of 75.6 µM, a TGI (A498 renal) of 33.9 µM and a TGI (A549 NSCLC) of over 100 µM. The TGI (ACHN renal) was 40.9 µM, the TGI (BT-549 breast) was 53.8 µM and the TGI (CAKI-1 renal) was 62.8 µM. It also gave a TGI (COLO 205 colon) of 35.2 µM, a TGI (DU-145 prostate) of 35.2 µM and a TGI (EKVX NSCLC) of 59.1 µM. For the same compound, the TGI (HCC-2998 colon) was 30 µM, the TGI (HCT-116 colon) was 57.3 µM and the TGI (HCT-15 colon) was 38.5 µM. It also gave a TGI (HL-60(TB) leukemia) of 39.4 µM, a TGI (HOP-62 NSCLC) of 67.8 µM and a TGI (HOP-92 NSCLC) of 36.8 µM. For the same compound, the TGI (HS 578T breast) was 47.7 µM, the TGI (HT29 colon) was 40.4 µM and the TGI (IGROV1 ovarian) was 37.4 µM. It also gave a TGI (K-562 leukemia) of 70 µM, a TGI (KM12 colon) of 32.3 µM and a TGI (LOX IMVI melanoma) of 32.4 µM. The TGI (M14 melanoma) was 34.4 µM, the TGI (MALME-3M melanoma) was 44.6 µM and the TGI (MCF7 breast) was 31.1 µM. The TGI (MDA-MB-231 breast) was 37.4 µM, the TGI (MDA-MB-435) was 35.1 µM and the TGI (MDA-N) was 44.9 µM. The TGI (MOLT-4 leukemia) was 56.9 µM, the TGI (NCI-H226 lung) was 87.3 µM and the TGI (NCI-H460 lung) was 33.7 µM. For the same compound, the TGI (NCI-H522 lung) was 32.6 µM, the TGI (NCI/ADR-RES ovarian) was 98.2 µM and the TGI (OVCAR-3 ovarian) was over 100 µM. For the same compound, the TGI (OVCAR-4 ovarian) was 80.7 µM, the TGI (OVCAR-5 ovarian) was 49.3 µM and the TGI (OVCAR-8 ovarian) was 45.2 µM. It also gave a TGI (PC-3 prostate) of 32.7 µM, a TGI (RPMI-8226 leukemia) of 70.2 µM and a TGI (RXF 393 renal) of 67.2 µM. The TGI (SF-268 CNS) was 53.1 µM, the TGI (SF-295 CNS) was 49.5 µM and the TGI (SF-539 CNS) was 40.8 µM. It also gave a TGI (SK-MEL-2 melanoma) of 36.3 µM, a TGI (SK-MEL-28 melanoma) of 44.6 µM and a TGI (SK-MEL-5 melanoma) of 54 µM. It also gave a TGI (SK-OV-3 ovarian) of over 100 µM, a TGI (SN12C renal) of 60.3 µM and a TGI (SNB-19 CNS) of 37.7 µM. The TGI (SNB-75 CNS) was 41 µM, the TGI (SR leukemia) was 46.1 µM and the TGI (SW-620 colon) was 52 µM. For the same compound, the TGI (T-47D breast) was 71.4 µM, the TGI (TK-10 renal) was 59.6 µM and the TGI (U251 CNS) was 31.5 µM. For the same compound, the TGI (UACC-257 melanoma) was 78.3 µM, the TGI (UACC-62 melanoma) was 32.9 µM and the TGI (UO-31 renal) was 63.7 µM.

Source: PubChem BioAssay (NCI)
